According to ChEMBL document CHEMBL1687748 (Antimicrob Agents Chemother, 2009):
≈ marks a conversion by molar mass, not a printed value.

Key:
Type in all cases: functional
Bacillus anthracis [1] = assay: Growth rate constant for compound-sensitive toxin and capsule gene-deficient Bacillus anthracis Sterne in hollow-fiber pharmacodynamic infection model at 250 mg administered as continuous infusion by Bayesian method
Bacillus anthracis [2] = assay: Growth rate constant of vegetative-phase cells going to spore phase in toxin and capsule gene-deficient Bacillus anthracis Sterne in hollow-fiber pharmacodynamic infection model at 200 mg administered as continuous infusion by Bayesian method
Bacillus anthracis [3] = assay: Total sensitive organism counts of toxin and capsule gene-deficient Bacillus anthracis Sterne in hollow-fiber pharmacodynamic infection model at 150 mg, qd by Bayesian method
Bacillus anthracis [4] = assay: Kill rate constant for compound-sensitive toxin and capsule gene-deficient Bacillus anthracis Sterne in hollow-fiber pharmacodynamic infection model administered as continuous infusion
Bacillus anthracis [5] = assay: Antimicrobial activity against toxin and capsule gene-deficient Bacillus anthracis Sterne after 24 hrs by macrobroth dilution method
Bacillus anthracis [6] = assay: Growth rate constant for compound-sensitive toxin and capsule gene-deficient Bacillus anthracis Sterne in hollow-fiber pharmacodynamic infection model administered for every 24 hrs
Bacillus anthracis [7] = assay: Growth rate constant for compound-sensitive toxin and capsule gene-deficient Bacillus anthracis Sterne in hollow-fiber pharmacodynamic infection model at 200 mg, qd by Bayesian method
Bacillus anthracis [8] = assay: Kill rate constant for compound-sensitive toxin and capsule gene-deficient Bacillus anthracis Sterne in hollow-fiber pharmacodynamic infection model at 250 mg, qd by Bayesian method
Bacillus anthracis [9] = assay: Growth rate constant of vegetative-phase cells going to spore phase in toxin and capsule gene-deficient Bacillus anthracis Sterne in hollow-fiber pharmacodynamic infection model at 100 mg administered as continuous infusion by Bayesian method
Bacillus anthracis [10] = assay: Growth rate constant of spore-phase cells going to vegetative phase in toxin and capsule gene-deficient Bacillus anthracis Sterne in hollow-fiber pharmacodynamic infection model at 100 mg administered as continuous infusion by Bayesian method
Bacillus anthracis [11] = assay: Hill constant for compound-sensitive toxin and capsule gene-deficient Bacillus anthracis Sterne in hollow-fiber pharmacodynamic infection model at 150 mg, qd by Bayesian method
Bacillus anthracis [12] = assay: Growth rate constant for compound-sensitive toxin and capsule gene-deficient Bacillus anthracis Sterne in hollow-fiber pharmacodynamic infection model at 50 mg, qd by Bayesian method
Bacillus anthracis [13] = assay: Hill constant for compound-sensitive toxin and capsule gene-deficient Bacillus anthracis Sterne in hollow-fiber pharmacodynamic infection model at 200 mg administered as continuous infusion by Bayesian method
Bacillus anthracis [14] = assay: Growth rate constant of spore-phase cells going to vegetative phase in toxin and capsule gene-deficient Bacillus anthracis Sterne in hollow-fiber pharmacodynamic infection model at 150 mg administered as continuous infusion by Bayesian method
Bacillus anthracis [15] = assay: Hill constant for compound-sensitive toxin and capsule gene-deficient Bacillus anthracis Sterne in hollow-fiber pharmacodynamic infection model administered as continuous infusion
Bacillus anthracis [16] = assay: Kill rate constant for compound-sensitive toxin and capsule gene-deficient Bacillus anthracis Sterne in hollow-fiber pharmacodynamic infection model at 50 mg, qd by Bayesian method
Bacillus anthracis [17] = assay: Growth rate constant of vegetative-phase cells going to spore phase in toxin and capsule gene-deficient Bacillus anthracis Sterne in hollow-fiber pharmacodynamic infection model administered as continuous infusion
Bacillus anthracis [18] = assay: Kill rate constant for compound-sensitive toxin and capsule gene-deficient Bacillus anthracis Sterne in hollow-fiber pharmacodynamic infection model at 100 mg administered as continuous infusion by Bayesian method
Bacillus anthracis [19] = assay: Total sensitive organism counts of toxin and capsule gene-deficient Bacillus anthracis Sterne in hollow-fiber pharmacodynamic infection model at 200 mg, qd by Bayesian method
Bacillus anthracis [20] = assay: Total spore counts of toxin and capsule gene-deficient Bacillus anthracis Sterne in hollow-fiber pharmacodynamic infection model at 100 mg administered as continuous infusion by Bayesian method
Bacillus anthracis [21] = assay: Total spore counts of toxin and capsule gene-deficient Bacillus anthracis Sterne in hollow-fiber pharmacodynamic infection model at 100 mg, qd by Bayesian method
Bacillus anthracis [22] = assay: Kill rate constant for compound-sensitive toxin and capsule gene-deficient Bacillus anthracis Sterne in hollow-fiber pharmacodynamic infection model administered for every 24 hrs
Bacillus anthracis [23] = assay: Growth rate constant for compound-sensitive toxin and capsule gene-deficient Bacillus anthracis Sterne in hollow-fiber pharmacodynamic infection model at 100 mg administered as continuous infusion by Bayesian method
Bacillus anthracis [24] = assay: Kill rate constant for compound-sensitive toxin and capsule gene-deficient Bacillus anthracis Sterne in hollow-fiber pharmacodynamic infection model at 250 mg administered as continuous infusion by Bayesian method
Bacillus anthracis [25] = assay: Kill rate constant for compound-sensitive toxin and capsule gene-deficient Bacillus anthracis Sterne in hollow-fiber pharmacodynamic infection model at 200 mg administered as continuous infusion by Bayesian method
Bacillus anthracis [26] = assay: Growth rate constant of spore-phase cells going to vegetative phase in toxin and capsule gene-deficient Bacillus anthracis Sterne in hollow-fiber pharmacodynamic infection model administered for every 24 hrs
Bacillus anthracis [27] = assay: Total spore counts of toxin and capsule gene-deficient Bacillus anthracis Sterne in hollow-fiber pharmacodynamic infection model at 150 mg administered as continuous infusion by Bayesian method
Bacillus anthracis [28] = assay: Growth rate constant of vegetative-phase cells going to spore phase in toxin and capsule gene-deficient Bacillus anthracis Sterne in hollow-fiber pharmacodynamic infection model at 50 mg, qd by Bayesian method
Bacillus anthracis [29] = assay: Total sensitive organism counts of toxin and capsule gene-deficient Bacillus anthracis Sterne in hollow-fiber pharmacodynamic infection model at 100 mg, qd by Bayesian method
Bacillus anthracis [30] = assay: Total spore counts of toxin and capsule gene-deficient Bacillus anthracis Sterne in hollow-fiber pharmacodynamic infection model administered as continuous infusion
Bacillus anthracis [31] = assay: Hill constant for compound-sensitive toxin and capsule gene-deficient Bacillus anthracis Sterne in hollow-fiber pharmacodynamic infection model at 150 mg administered as continuous infusion by Bayesian method
Bacillus anthracis [32] = assay: Hill constant for compound-sensitive toxin and capsule gene-deficient Bacillus anthracis Sterne in hollow-fiber pharmacodynamic infection model at 250 mg, qd by Bayesian method
Bacillus anthracis [33] = assay: Total sensitive organism counts of toxin and capsule gene-deficient Bacillus anthracis Sterne in hollow-fiber pharmacodynamic infection model at 250 mg, qd by Bayesian method
Bacillus anthracis [34] = assay: Growth rate constant for compound-sensitive toxin and capsule gene-deficient Bacillus anthracis Sterne in hollow-fiber pharmacodynamic infection model at 200 mg administered as continuous infusion by Bayesian method
Bacillus anthracis [35] = assay: Hill constant for compound-sensitive toxin and capsule gene-deficient Bacillus anthracis Sterne in hollow-fiber pharmacodynamic infection model at 100 mg, qd by Bayesian method
Bacillus anthracis [36] = assay: Growth rate constant of spore-phase cells going to vegetative phase in toxin and capsule gene-deficient Bacillus anthracis Sterne in hollow-fiber pharmacodynamic infection model at 200 mg administered as continuous infusion by Bayesian method
Bacillus anthracis [37] = assay: Growth rate constant of spore-phase cells going to vegetative phase in toxin and capsule gene-deficient Bacillus anthracis Sterne in hollow-fiber pharmacodynamic infection model at 200 mg, qd by Bayesian method

Structure (SMILES): COc1c(N2C[C@@H]3CCCN[C@@H]3C2)c(F)cc2c(=O)c(C(=O)O)cn(C3CC3)c12 [MOXIFLOXACIN]
- Activity (Bacillus anthracis [1]): 8.25 h⁻¹
- Activity (Bacillus anthracis [2]): 5.3 h⁻¹
- CFU/ml (Bacillus anthracis [3]): 21500000
- Activity (Bacillus anthracis [4]): 6.41 h⁻¹
- MIC (Bacillus anthracis [5]): 0.06 µg/mL (≈ 0.149 µM)
- Activity (Bacillus anthracis [6]): 8.24 h⁻¹
- Activity (Bacillus anthracis [7]): 1.81 h⁻¹
- Activity (Bacillus anthracis [8]): 4.48 h⁻¹
- Activity (Bacillus anthracis [9]): 1.17 h⁻¹
- Activity (Bacillus anthracis [10]): 10.1 h⁻¹
- Activity (Bacillus anthracis [11]): 30 h⁻¹
- Activity (Bacillus anthracis [12]): 5.14 h⁻¹
- Activity (Bacillus anthracis [13]): 30 h⁻¹
- Activity (Bacillus anthracis [14]): 9.06 h⁻¹
- Activity (Bacillus anthracis [15]): 5.93 h⁻¹
- Activity (Bacillus anthracis [16]): 6.24 h⁻¹
- Activity (Bacillus anthracis [17]): 1.2 h⁻¹
- Activity (Bacillus anthracis [18]): 8.28 h⁻¹
- CFU/ml (Bacillus anthracis [19]): 53600000
- CFU/ml (Bacillus anthracis [20]): 1860000
- CFU/ml (Bacillus anthracis [21]): 1900000
- Activity (Bacillus anthracis [22]): 8.24 h⁻¹
- Activity (Bacillus anthracis [23]): 8.26 h⁻¹
- Activity (Bacillus anthracis [24]): 8.28 h⁻¹
- Activity (Bacillus anthracis [25]): 8.28 h⁻¹
- Activity (Bacillus anthracis [26]): 7.31 h⁻¹
- CFU/ml (Bacillus anthracis [27]): 1880000
- Activity (Bacillus anthracis [28]): 0.0657 h⁻¹
- CFU/ml (Bacillus anthracis [29]): 28000000
- CFU/ml (Bacillus anthracis [30]): 1880000
- Activity (Bacillus anthracis [31]): 30 h⁻¹
- Activity (Bacillus anthracis [32]): 1 h⁻¹
- CFU/ml (Bacillus anthracis [33]): 36000000
- Activity (Bacillus anthracis [34]): 8.25 h⁻¹
- Activity (Bacillus anthracis [35]): 30 h⁻¹
- Activity (Bacillus anthracis [36]): 6.65 h⁻¹
- Activity (Bacillus anthracis [37]): 1.01 h⁻¹
